Data: the supplement of paper PMC10307832

Experiments:
Test in all cases: relative viability (nuclei count vs DMSO), 5 days (fraction); higher = more cells survive
NCI-H2023 = tested on: NCI-H2023
Outline: (§1)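 Lung cancer cell lines, seeded in 1536-well plates, were treated the following day by pin tool with a single drug or with five library-drug doses (not always all listed) in √10 steps on top of a fixed anchor-drug dose. Cells were fixed and nuclei stained in one step after 5 days, and nuclei were counted. Relative viability is the nuclei count for treated wells divided by that for vehicle wells, reported as medians of duplicate plates.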

NCI-H727 = tested on: NCI-H727
Outline: as §1

HCC-827 = tested on: HCC-827
Outline: as §1

BEN = tested on: BEN
Outline: as §1

LCLC-103H = tested on: LCLC-103H
Outline: as §1

NCI-H1793 = tested on: NCI-H1793
Outline: as §1

LXF-289 = tested on: LXF-289
Outline: as §1

HOP-62 = tested on: HOP-62
Outline: as §1

RERF-LC-KJ = tested on: RERF-LC-KJ
Outline: as §1

NCI-H1395 = tested on: NCI-H1395
Outline: as §1

NCI-H3122 = tested on: NCI-H3122
Outline: as §1

NCI-H1437 = tested on: NCI-H1437
Outline: as §1

NCI-H2087 = tested on: NCI-H2087
Outline: as §1

NCI-H647 = tested on: NCI-H647
Outline: as §1

LCLC-97TM1 = tested on: LCLC-97TM1
Outline: as §1

NCI-H322M = tested on: NCI-H322M
Outline: as §1

NCI-H1355 = tested on: NCI-H1355
Outline: as §1

NCI-H1650 = tested on: NCI-H1650
Outline: as §1

NCI-H2405 = tested on: NCI-H2405
Outline: as §1

HCC-44 = tested on: HCC-44
Outline: as §1

NCI-H2228 = tested on: NCI-H2228
Outline: as §1

SK-LU-1 = tested on: SK-LU-1
Outline: as §1

201T = tested on: 201T
Outline: as §1

CAL-12T = tested on: CAL-12T
Outline: as §1

C[C@@H]1CN(CC(=O)Nc2ccc3c(c2)Cc2cccc(-c4cc(=O)cc(N5CCOCC5)o4)c2S3)C[C@H](C)O1 + Cc1cc(Nc2cc(N3CCN(C)CC3)nc(Sc3ccc(NC(=O)C4CC4)cc3)n2)n[nH]1 [Tozasertib] (partner 0.1 µM)
relative viability (NCI-H2023; first compound 0.04 µM): 0.406 | relative viability (NCI-H2023; first compound 0.1265 µM): 0.285 | relative viability (NCI-H2023; first compound 0.4 µM): 0.238 | relative viability (NCI-H2023; first compound 4 µM): 0.175 | relative viability (NCI-H727; first compound 0.04 µM): 0.797 | relative viability (NCI-H727; first compound 0.1265 µM): 0.736 | relative viability (NCI-H727; first compound 0.4 µM): 0.572 | relative viability (NCI-H727; first compound 4 µM): 0.57 | relative viability (HCC-827; first compound 0.04 µM): 0.451 | relative viability (HCC-827; first compound 0.1265 µM): 0.396 | relative viability (HCC-827; first compound 0.4 µM): 0.41 | relative viability (HCC-827; first compound 4 µM): 0.427 | relative viability (BEN; first compound 0.04 µM): 0.449 | relative viability (BEN; first compound 0.1265 µM): 0.49 | relative viability (BEN; first compound 0.4 µM): 0.447 | relative viability (BEN; first compound 4 µM): 0.478 | relative viability (LCLC-103H; first compound 0.04 µM): 0.532 | relative viability (LCLC-103H; first compound 0.1265 µM): 0.498 | relative viability (LCLC-103H; first compound 0.4 µM): 0.544 | relative viability (LCLC-103H; first compound 4 µM): 0.417 | relative viability (NCI-H1793; first compound 0.04 µM): 0.279 | relative viability (NCI-H1793; first compound 0.1265 µM): 0.313 | relative viability (NCI-H1793; first compound 0.4 µM): 0.306 | relative viability (NCI-H1793; first compound 4 µM): 0.17 | relative viability (LXF-289; first compound 0.04 µM): 0.193 | relative viability (LXF-289; first compound 0.1265 µM): 0.212 | relative viability (LXF-289; first compound 0.4 µM): 0.246 | relative viability (LXF-289; first compound 4 µM): 0.191 | relative viability (HOP-62; first compound 0.04 µM): 0.378 | relative viability (HOP-62; first compound 0.1265 µM): 0.365 | relative viability (HOP-62; first compound 0.4 µM): 0.35 | relative viability (HOP-62; first compound 4 µM): 0.346 | relative viability (RERF-LC-KJ; first compound 0.04 µM): 0.545 | relative viability (RERF-LC-KJ; first compound 0.1265 µM): 0.48 | relative viability (RERF-LC-KJ; first compound 0.4 µM): 0.496 | relative viability (RERF-LC-KJ; first compound 4 µM): 0.351 | relative viability (NCI-H1395; first compound 0.04 µM): 0.696 | relative viability (NCI-H1395; first compound 0.1265 µM): 0.729 | relative viability (NCI-H1395; first compound 0.4 µM): 0.665 | relative viability (NCI-H1395; first compound 4 µM): 0.721 | relative viability (NCI-H3122; first compound 0.04 µM): 0.4 | relative viability (NCI-H3122; first compound 0.1265 µM): 0.403 | relative viability (NCI-H3122; first compound 0.4 µM): 0.265 | relative viability (NCI-H3122; first compound 4 µM): 0.293 | relative viability (NCI-H1437; first compound 0.04 µM): 0.379 | relative viability (NCI-H1437; first compound 0.1265 µM): 0.354 | relative viability (NCI-H1437; first compound 0.4 µM): 0.395 | relative viability (NCI-H1437; first compound 4 µM): 0.365 | relative viability (NCI-H2087; first compound 0.04 µM): 0.309 | relative viability (NCI-H2087; first compound 0.1265 µM): 0.249 | relative viability (NCI-H2087; first compound 0.4 µM): 0.333 | relative viability (NCI-H2087; first compound 4 µM): 0.228 | relative viability (NCI-H647; first compound 0.04 µM): 0.461 | relative viability (NCI-H647; first compound 0.1265 µM): 0.278 | relative viability (NCI-H647; first compound 0.4 µM): 0.344 | relative viability (NCI-H647; first compound 4 µM): 0.192 | relative viability (LCLC-97TM1; first compound 0.04 µM): 0.27 | relative viability (LCLC-97TM1; first compound 0.1265 µM): 0.226 | relative viability (LCLC-97TM1; first compound 0.4 µM): 0.214 | relative viability (LCLC-97TM1; first compound 4 µM): 0.207 | relative viability (NCI-H322M; first compound 0.04 µM): 0.489 | relative viability (NCI-H322M; first compound 0.1265 µM): 0.486 | relative viability (NCI-H322M; first compound 0.4 µM): 0.449 | relative viability (NCI-H322M; first compound 4 µM): 0.432 | relative viability (NCI-H1355; first compound 0.04 µM): 0.361 | relative viability (NCI-H1355; first compound 0.1265 µM): 0.514 | relative viability (NCI-H1355; first compound 0.4 µM): 0.461 | relative viability (NCI-H1355; first compound 4 µM): 0.42 | relative viability (NCI-H1650; first compound 0.04 µM): 0.433 | relative viability (NCI-H1650; first compound 0.1265 µM): 0.375 | relative viability (NCI-H1650; first compound 0.4 µM): 0.344 | relative viability (NCI-H1650; first compound 4 µM): 0.239 | relative viability (NCI-H2405; first compound 0.04 µM): 0.676 | relative viability (NCI-H2405; first compound 0.1265 µM): 0.766 | relative viability (NCI-H2405; first compound 0.4 µM): 0.703 | relative viability (NCI-H2405; first compound 4 µM): 0.695 | relative viability (HCC-44; first compound 0.04 µM): 0.862 | relative viability (HCC-44; first compound 0.1265 µM): 0.933 | relative viability (HCC-44; first compound 0.4 µM): 1.05 | relative viability (HCC-44; first compound 4 µM): 0.652 | relative viability (NCI-H2228; first compound 0.04 µM): 0.235 | relative viability (NCI-H2228; first compound 0.1265 µM): 0.214 | relative viability (NCI-H2228; first compound 0.4 µM): 0.245 | relative viability (NCI-H2228; first compound 4 µM): 0.162 | relative viability (SK-LU-1; first compound 0.04 µM): 0.334 | relative viability (SK-LU-1; first compound 0.1265 µM): 0.326 | relative viability (SK-LU-1; first compound 0.4 µM): 0.323 | relative viability (SK-LU-1; first compound 4 µM): 0.217 | relative viability (201T; first compound 0.04 µM): 0.93 | relative viability (201T; first compound 0.1265 µM): 0.882 | relative viability (201T; first compound 0.4 µM): 0.909 | relative viability (201T; first compound 4 µM): 0.922 | relative viability (CAL-12T; first compound 0.04 µM): 0.306 | relative viability (CAL-12T; first compound 0.1265 µM): 0.366 | relative viability (CAL-12T; first compound 0.4 µM): 0.296 | relative viability (CAL-12T; first compound 4 µM): 0.217
